Source: patent US20260274892A1, “MACROCYCLIC BROAD SPECTRUM ANTIBIOTICS” (RQx Pharmaceuticals, Inc., priority 2017, published 2026)
Each block holds one compound with its values, some of them ahead of it.

System: Escherichia coli ATCC 25922
Experiment: Minimum inhibitory concentration (MIC), CLSI broth micro-dilution, E. coli
Assay type: cell-based
Settings: Escherichia coli
Protocol: In vitro antimicrobial activity of each compound was determined by measuring minimal inhibitor concentrations (MICs) using the broth micro-dilution technique as approved by the Clinical and Laboratory Standards Institute (CLSI) (Methods for Dilution Antimicrobial Susceptibility Tests for Bacteria that Grow Aerobically; Approved Standard-Eighth Edition. CLSI document M07-A8. Wayne, PA: Clinical and Laboratroy Standards; 2009). Antibacterial activity was measure against two strains of bacteria: a Methicillin Resistant Staphylococcus aureus strain USA 200, (S. aureus) and Escherichia coli ATCC 25922 (E. coli), a clinically relevant Gram-negative strain. Cells were inoculated onto plates of Trypyticase Soy Agar or Luria Agar respectively and grown at 35° C. for 20 hours. Inocula suspensions were prepared by scraping cells into 1 mL of testing media (cation adjusted Mueller Hinton Broth supplemented with 0.002% v/v Tween-80) and diluting to a final OD600nm of 0.01.
Test compounds were prepared in DMSO at a concentration of 10 mg/mL. In protocol 1, the compound stocks were diluted into testing media at a concentration of 64 µg/ml and serial 2-fold dilutions were made in the same media, in 96-well U bottom microtiter dishes, for a total of 10 compound concentrations. In protocol 2, the compound stocks were diluted into testing media at a concentration of 4 µg/mL and serial 2-fold dilutions were made in the same media, in 96-well U bottom microtiter dishes, for a total of 10 compound concentrations. In protocol 3, compound stocks were diluted into testing media at a concentration of 0.5 μg/mL, with serial 2-fold dilutions conducted as described above. In protocol 4, compound stocks were diluted into testing media at a concentration of […], with serial 2-fold dilutions conducted as described above. Inocula suspensions were added to the 2-fold serial dilutions of test compounds to a final density of GD OD600nm of 0.0005 and incubated at 35° C. for 22 hours.

[1] = ATCC25922, Table 6, cation adjusted Mueller Hinton Broth + 0.002% Tween-80, 35° C., 22 hours
[2] = ATCC25922, Table 7, cation adjusted Mueller Hinton Broth + 0.002% Tween-80, 35° C., 22 hours
[3] = ATCC25922, 22 h, Table 6, cation adjusted Mueller Hinton Broth + 0.002% Tween-80, 35° C.
[4] = ATCC25922, 22 h, Table 7, cation adjusted Mueller Hinton Broth + 0.002% Tween-80, 35° C.

- MIC [4]: 0.5 µM
Structure (SMILES): Cc1nc(-c2ccc(C(C)(C)C)cc2)nc(C)c1C(=O)N[C@@H](CCNS(N)(=O)=O)C(=O)N(C)[C@@H]1C(=O)N[C@@H](C)C(=O)N[C@H](C(=O)NCC#N)Cc2ccc(OCCN)c(c2)-c2cc1ccc2OCCN (racemic) [Compound 574, rac-(8S,11S,14S)-3,18-bis(2-aminoethoxy)-N-(cyanomethyl)-11-methyl-14-[methyl-[rac-(2S)-2-[[2-(4-tert-butylphenyl)-4,6-dimethyl-pyrimidine-5-carbonyl]amino]-4-(sulfamoylamino)butanoyl]amino]-10,13-dioxo-9,12-diazatricyclo[13.3.1.12,6]icosa-1(18),2(20),3,5,15(19),16-hexaene-8-carboxamide]

- MIC [4]: 0.19 µM
Structure (SMILES): Cc1nc(-c2ccc(C(C)(C)C)cc2)nc(C)c1C(=O)N[C@@H](CCN)C(=O)N(C)[C@@H]1C(=O)N[C@@H](C)C(=O)N[C@H](C(=O)NCC#N)Cc2ccc(O)c(c2)-c2cc1ccc2OC[C@H](O)CN (racemic) [Compound 617, rac-(8S,11S,14S)-N-(cyanomethyl)-3-hydroxy-11-methyl-14-[methyl-[rac-(2S)-4-amino-2-[[2-(4-tert-butylphenyl)-4,6-dimethyl-pyrimidine-5-carbonyl]amino]butanoyl]amino]-10,13-dioxo-18-[rac-(2R)-3-amino-2-hydroxy-propoxy]-9,12-diazatricyclo[13.3.1.12,6]icosa-1(18),2(20),3,5,15(19),16-hexaene-8-carboxamide]

- MIC [4]: 0.38 µM
Structure (SMILES): CC(=O)Nc1cc2cc(c1O)-c1cc(ccc1OCCN)[C@H](N(C)C(=O)[C@H](CCN)NC(=O)c1c(C)nc(-c3ccc(C(C)(C)C)cc3)nc1C)C(=O)N[C@@H](C)C(=O)N[C@H](C(=O)NCC#N)C2 [Compound 559, (4S,7S,10S)-2^5-acetamido-10-((S)-4-amino-2-(2-(4-(tert-butyl)phenyl)-4,6-dimethylpyrimidine-5-carboxamido)-N-methylbutanamido)-1^6-(2-aminoethoxy)-N-(cyanomethyl)-2^6-hydroxy-7-methyl-6,9-dioxo-5,8-diaza-1,2(1,3)-dibenzenacyclodecaphane-4-carboxamide]

- MIC [4]: 0.094 µM
Structure (SMILES): Cc1nc(-c2ccc(C(C)(C)C)cc2)nc(C)c1C(=O)N[C@@H](CCN)C(=O)N(C)[C@@H]1C(=O)N[C@@H](C)C(=O)N[C@H](C(=O)NCC#N)Cc2ccc(OCCN)c(c2)-c2cc1ccc2OC[C@H](O)CN (racemic) [Compound 571, rac-(8S,11S,14S)-3-(2-aminoethoxy)-N-(cyanomethyl)-11-methyl-14-[methyl-[rac-(2S)-4-amino-2-[[2-(4-tert-butylphenyl)-4,6-dimethyl-pyrimidine-5-carbonyl]amino]butanoyl]amino]-10,13-dioxo-18-[rac-(2R)-3-amino-2-hydroxy-propoxy]-9,12-diazatricyclo[13.3.1.12,6]icosa-1(18),2(20),3,5,15(19),16-hexaene-8-carboxamide]

Second part, the compound before the results:

Structure (SMILES): Cc1nc(-c2ccc(OC3CCCCC3)cc2)nc(C)c1C(=O)N[C@@H](CCNC(=O)CO)C(=O)N(C)[C@@H]1C(=O)N[C@@H](C)C(=O)N[C@H](C(=O)NCC#N)Cc2ccc(OCCN)c(c2)-c2cc1ccc2OCCN [Compound 511, (8S,11S,14S)-3,18-bis(2-aminoethoxy)-N-(cyanomethyl)-14-[[(2S)-2-[[2-[4-(cyclohexoxy)phenyl]-4,6-dimethyl-pyrimidine-5-carbonyl]amino]-4-[(2-hydroxyacetyl)amino]butanoyl]-methyl-amino]-11-methyl-10,13-dioxo-9,12-diazatricyclo[13.3.1.12,6]icosa-1(18),2(20),3,5,15(19),16-hexaene-8-carboxamide]
- MIC [1]: 2 µM

Structure (SMILES): Cc1nc(-c2ccc(C(C)(C)C)cc2)nc(C)c1C(=O)N[C@@H](CCN)C(=O)N(C)[C@@H]1C(=O)N[C@@H](C)C(=O)N[C@H](C(=O)NCC#N)Cc2cc(c(O)cc2CN)-c2cc1ccc2OCCN (racemic) [Compound 626, rac-(8S,11S,14S)-18-(2-aminoethoxy)-5-(aminomethyl)-N-(cyanomethyl)-3-hydroxy-11-methyl-14-[methyl-[rac-(2S)-4-amino-2-[[2-(4-tert-butylphenyl)-4,6-dimethyl-pyrimidine-5-carbonyl]amino]butanoyl]amino]-10,13-dioxo-9,12-diazatricyclo[13.3.1.12,6]icosa-1(18),2(20),3,5,15(19),16-hexaene-8-carboxamide]
- MIC [2]: 0.25 µM

Structure (SMILES): Cc1nc(-c2ccc(OC3CCCCC3)cc2)nc(N)c1C(=O)N[C@@H](CCN)C(=O)N(C)[C@@H]1C(=O)N[C@@H](C)C(=O)N[C@H](C(=O)NCC#N)Cc2ccc(OCCN)c(c2)-c2cc1ccc2OCCN (racemic) [Compound 547, rac-(8S,11S,14S)-3,18-bis(2-aminoethoxy)-N-(cyanomethyl)-11-methyl-14-[methyl-[rac-(2S)-4-amino-2-[[4-amino-2-[4-(cyclohexoxy)phenyl]-6-methyl-pyrimidine-5-carbonyl]amino]butanoyl]amino]-10,13-dioxo-9,12-diazatricyclo[13.3.1.12,6]icosa-1(18),2(20),3,5,15(19),16-hexaene-8-carboxamide]
- MIC [3]: 0.094 µM

Structure (SMILES): Cc1cc(-c2ccc(C(C)(C)C)cc2)ncc1C(=O)N[C@@H](CCN)C(=O)N(C)[C@@H]1C(=O)N[C@@H](C)C(=O)N[C@H](C(=O)NCC#N)Cc2ccc(OCCN)c(c2)-c2cc1ccc2OCCN (racemic) [Compound 215, rac-(8S,11S,14S)-3,18-bis(2-aminoethoxy)-N-(cyanomethyl)-11-methyl-14-[methyl-[rac-(2S)-4-amino-2-[[6-(4-tert-butylphenyl)-4-methyl-pyridine-3-carbonyl]amino]butanoyl]amino]-10,13-dioxo-9,12-diazatricyclo[13.3.1.12,6]icosa-1(18),2(20),3,5,15(19),16-hexaene-8-carboxamide]
- MIC [1]: 0.13 µM

Structure (SMILES): Cc1nc(-c2ccc(C(C)(C)C)cc2)nc(C)c1C(=O)N[C@@H](CCN)C(=O)N(C)[C@@H]1C(=O)N[C@@H](C)C(=O)N[C@H](C(=O)O)Cc2cc(OCCN)c(O)c(c2)-c2cc1ccc2OCCN (racemic) [Compound 563, rac-(8S,11S,14S)-4,18-bis(2-aminoethoxy)-3-hydroxy-11-methyl-14-[methyl-[rac-(2S)-4-amino-2-[[2-(4-tert-butylphenyl)-4,6-dimethyl-pyrimidine-5-carbonyl]amino]butanoyl]amino]-10,13-dioxo-9,12-diazatricyclo [13.3.1.12,6]icosa-1(18),2,4,6(20),15(19), 16-hexaene-8-carboxylic acid]
- MIC [2]: 0.25 µM

Structure (SMILES): Cc1cc(-c2ccc(C(C)(C)C)cc2)nc(C)c1C(=O)N[C@@H](CCN)C(=O)N(C)[C@@H]1C(=O)N[C@@H](C)C(=O)N[C@H](C(=O)NCC#N)Cc2ccc(OCCN)c(c2)-c2cc1ccc2OCCN (racemic) [Compound 358, rac-(8S,11S,14S)-3,18-bis(2-aminoethoxy)-N-(cyanomethyl)-11-methyl-14-[methyl-[rac-(2S)-4-amino-2-[[6-(4-tert-butylphenyl)-2,4-dimethyl-pyridine-3-carbonyl]amino]butanoyl]amino]-10,13-dioxo-9,12-diazatricyclo[13.3.1.12,6]icosa-1(18),2(20),3,5,15(19),16-hexaene-8-carboxamide]
- MIC [1]: 0.2 µM

Structure (SMILES): Cc1nc(-c2ccc(N3[C@H](C)CCC[C@@H]3C)cc2)nc(C)c1C(=O)N[C@@H](CCN)C(=O)N(C)[C@@H]1C(=O)N[C@@H](C)C(=O)N[C@H](C(=O)NCC#N)Cc2ccc(OCCN)c(c2)-c2cc1ccc2OCCN (racemic) [Compound 555, rac-(8S,11S,14S)-3,18-bis(2-aminoethoxy)-N-(cyanomethyl)-11-methyl-14-[methyl-[rac-(2S)-4-amino-2-[[4,6-dimethyl-2-[4-[rac-(2R,6S)-2,6-dimethyl-1-piperidyl]phenyl]pyrimidine-5-carbonyl]amino]butanoyl]amino]-10,13-dioxo-9,12-diazatricyclo[13.3.1.12,6]icosa-1(18),2(20),3,5,15(19),16-hexaene-8-carboxamide]
- MIC [3]: 0.19 µM

Structure (SMILES): COc1c(OCCN)cc2cc1-c1cc(ccc1OCCN)C[C@@H](C(=O)NCC#N)NC(=O)[C@H](C)NC(=O)[C@H]2N(C)C(=O)[C@H](CNS(N)(=O)=O)NC(=O)c1c(C)nc(-c2ccc(C(C)(C)C)cc2)nc1C (racemic) [Compound 585, rac-(8S,11S,14S)-3,17-bis(2-aminoethoxy)-N-(cyanomethyl)-18-methoxy-11-methyl-14-[methyl-[rac-(2S)-2-[[2-(4-tert-butylphenyl)-4,6-dimethyl-pyrimidine-5-carbonyl]amino]-3-(sulfamoylamino)propanoyl]amino]-10,13-dioxo-9,12-diazatricyclo[13.3.1.12,6]icosa-1(18),2(20),3,5,15(19),16-hexaene-8-carboxamide]
- MIC [2]: 0.38 µM
